{"source": "patent US8436040B2", "about": "“Method of treating conditions involving PPAR-receptors with indole compounds” (Laboratoires Fournier S.A., priority 2005, dated 2013)", "key": {"db/db mice": {"tested_on": "db/db mice", "assay": "db/db mouse model: serum glucose, triglyceride and cholesterol levels", "assay_type": "in vivo", "conditions": "serum 4 hours after last gavage", "experimental": "The test protocol is as follows:\nHomozygous C57BL/Ks-db male mice (db/db mice), 11 to 13 weeks old at the start of the studies, are divided up into groups of 9-10 animals. The products are administered orally once a day for 5 days. One group of mice receives the vehicle only (0.5 or 1% methyl cellulose solution). A blood sample is taken from the retro-orbital sinus before treatment and 4 hours after the last gavage.\nAfter centrifugation, the serum is collected and the cholesterol, triglyceride and glucose levels are measured using a multiparameter analyzer with commercial kits.\nThe results are expressed in % variation on the final day relative to the control group."}, "C2C12 cells": {"tested_on": "C2C12 cells", "assay": "β-oxidation of 1-C14 oleate on C2C12 cells differentiated in myotubes", "assay_type": "cell-based, murine", "conditions": "100 μM, 48 hours incubation", "experimental": "A second series of tests was performed with the compounds according to the invention in order to confirm the activity deduced from their affinity for the aforementioned receptors. This test consists in measuring the β-oxidation on HuH7 cells of human hepatic origin and C2C12 cells of murine muscular origin after differentiation in myotubes.\nThe cells are inoculated into Petri dishes containing a central well. The products are added to the culture medium and incubated for 48 hours at different concentrations. After incubation for 22 hours, C14-radiolabeled oleate (1-C14 oleate) is added to the culture medium. The β-oxidation reaction is stopped 2 hours later by the addition of 40% perchloric acid.\nThe CO2 liberated during the oxidation of the oleate is trapped with KOH solution and then counted.\nEach test is performed three times.\nThe results are expressed in % variation relative to the control dishes (dishes without compounds)."}, "[1]": {"conditions": "3 mg/kg orally once a day for 5 days"}, "[2]": {"conditions": "30 mg/kg orally once a day for 5 days"}, "[3]": {"conditions": "100 mg/kg orally once a day for 5 days"}}}
{"molecule": "CN(CCOc1ccc(CC2SC(=O)NC2=O)cc1)c1ccccn1", "note": "(stereo not shown) [Rosiglitazone, rosiglitazone, reference compound]", "values": [{"measurement": "Cholesterol, % variation on the final day relative to the control group", "setting": "db/db mice; [1]", "result": "−30", "unit": "%"}, {"measurement": "Glucose, % variation on the final day relative to the control group", "setting": "db/db mice; [1]", "result": "−41", "unit": "%"}, {"measurement": "Triglycerides, % variation on the final day relative to the control group", "setting": "db/db mice; [1]", "result": "−52", "unit": "%"}]}
{"molecule": "O=C(O)CCCc1cc2cc(Cl)ccc2n1S(=O)(=O)c1ccc2c(c1)OCO2", "note": "[Example 163, 1-[(1,3-Benzodioxol-5-yl)sulfonyl]-5-chloro-1H-indole-2-butanoic acid]", "values": [{"measurement": "Cholesterol, % variation on the final day relative to the control group", "setting": "db/db mice; [2]", "result": "−15", "unit": "%"}, {"measurement": "Glucose, % variation on the final day relative to the control group", "setting": "db/db mice; [2]", "result": "−38", "unit": "%"}, {"measurement": "Triglycerides, % variation on the final day relative to the control group", "setting": "db/db mice; [2]", "result": "−35", "unit": "%"}]}
{"molecule": "CC(C)OC(=O)C(C)(C)Oc1ccc(C(=O)c2ccc(Cl)cc2)cc1", "note": "[Fenofibrate]", "values": [{"measurement": "Cholesterol, % variation on the final day relative to the control group", "setting": "db/db mice; [3]", "result": "+32%"}, {"measurement": "Glucose, % variation on the final day relative to the control group", "setting": "db/db mice; [3]", "result": "−9", "unit": "%"}, {"measurement": "Triglycerides, % variation on the final day relative to the control group", "setting": "db/db mice; [3]", "result": "−7", "unit": "%"}]}
{"molecule": "O=C(O)CCc1cc2cc(Cl)ccc2n1S(=O)(=O)c1ccccc1", "note": "[Example 2, 5-Chloro-1-(phenylsulfonyl)-1H-indole-2-propanoic acid]", "values": [{"measurement": "Cholesterol, % variation on the final day relative to the control group", "setting": "db/db mice; [2]", "result": "+30%"}, {"measurement": "Glucose, % variation on the final day relative to the control group", "setting": "db/db mice; [2]", "result": 0, "unit": "%"}, {"measurement": "Triglycerides, % variation on the final day relative to the control group", "setting": "db/db mice; [2]", "result": "−7", "unit": "%"}]}
{"molecule": "CC(OCc1cc2cc(Cl)ccc2n1S(=O)(=O)c1ccccc1)C(=O)O", "note": "(stereo not shown) [Example 202, 2-[[5-Chloro-1-(phenylsulfonyl)-1H-indol-2-yl]methoxy]propanoic acid]", "values": [{"measurement": "Cholesterol, % variation on the final day relative to the control group", "setting": "db/db mice; [2]", "result": "+25%"}, {"measurement": "Glucose, % variation on the final day relative to the control group", "setting": "db/db mice; [2]", "result": "−52", "unit": "%"}, {"measurement": "Triglycerides, % variation on the final day relative to the control group", "setting": "db/db mice; [2]", "result": "−48", "unit": "%"}]}
{"molecule": "O=C(O)CCc1cc2cc(C(F)(F)F)ccc2n1S(=O)(=O)c1ccccc1", "note": "[Example 4, 1-(Phenylsulfonyl)-5-(trifluoromethyl)-1H-indole-2-propanoic acid]", "values": [{"measurement": "β-oxidation, % variation relative to the control dishes", "setting": "C2C12 cells", "result": 82, "unit": "%"}, {"measurement": "Cholesterol, % variation on the final day relative to the control group", "setting": "db/db mice; [2]", "result": "+41%"}, {"measurement": "Glucose, % variation on the final day relative to the control group", "setting": "db/db mice; [2]", "result": "−30", "unit": "%"}, {"measurement": "Triglycerides, % variation on the final day relative to the control group", "setting": "db/db mice; [2]", "result": "−12", "unit": "%"}]}
{"molecule": "O=C(O)CCc1cc2cc(Cl)ccc2n1S(=O)(=O)c1ccc2ncsc2c1", "note": "[Example 155, 1-[(6-Benzothiazolyl)sulfonyl]-5-chloro-1H-indole-2-propanoic acid]", "values": [{"measurement": "Cholesterol, % variation on the final day relative to the control group", "setting": "db/db mice; [2]", "result": "+38%"}, {"measurement": "Glucose, % variation on the final day relative to the control group", "setting": "db/db mice; [2]", "result": "−35", "unit": "%"}, {"measurement": "Triglycerides, % variation on the final day relative to the control group", "setting": "db/db mice; [2]", "result": "−41", "unit": "%"}]}
